Measured values as given in US20100016313A1, “INTESTINAL ALKALINE PHOSPHATASE MODULATORS AND USES THEREOF” (Burnham Institute for Medical Research, priority 2008, published 2010).

Molecular target: T1, human IAP (Homo sapiens, UniProt P09923)
T1 construct: made in house; host or cells: COS-1 cells, transient expression from pCMV-Script; conditioned serum-free medium used as enzyme stock
T1 sequence (P09923 20-503 limits assumed): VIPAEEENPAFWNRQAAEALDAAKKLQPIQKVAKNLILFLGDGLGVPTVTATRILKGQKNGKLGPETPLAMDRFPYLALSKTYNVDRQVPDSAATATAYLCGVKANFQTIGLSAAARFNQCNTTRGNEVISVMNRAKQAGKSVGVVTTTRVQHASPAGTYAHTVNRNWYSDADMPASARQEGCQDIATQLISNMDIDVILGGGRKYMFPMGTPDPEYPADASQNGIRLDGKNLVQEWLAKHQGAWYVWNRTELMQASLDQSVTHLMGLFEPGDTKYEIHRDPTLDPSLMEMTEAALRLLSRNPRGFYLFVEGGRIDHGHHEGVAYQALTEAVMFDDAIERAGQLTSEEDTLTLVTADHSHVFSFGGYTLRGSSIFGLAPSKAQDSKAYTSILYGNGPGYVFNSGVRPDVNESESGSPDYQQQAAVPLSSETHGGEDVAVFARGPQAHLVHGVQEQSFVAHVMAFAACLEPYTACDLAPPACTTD
Experiment: IAP assay using CDP-Star (chemiluminescent, dose response)
Type: biochemical
Conditions: IAP modulators, Tables A-H, positive = inhibitor; for n (Hill coefficient): negative = activator; for IC50: negative Hill coefficient = activator
Text: An expression vector pCMV-Script containing cDNA for human IAP, TNAP, PLAP, GCAP, mouse TNAP, dIAP, EAP or gIAP in secreted form (FLAG-tagged) is transfected into COS-1 cells for transient expression using a standard electroporation method. The GPI anchoring site is replaced by a FLAG sequence to make the proteins secreted into the media as well as to test their kinetics in a form immobilized by anti-FLAG antibody (Narisawa, et al, 2007). Medium is changed to serum free medium Opti-MEM (Invitrogen) 24 h later, and media containing secreted proteins was collected 66 hr after electroporation. Conditioned medium filtered by a 2 μm cellulose acetate membrane is supplemented with 0.1% BSA, aliquotted and stored at −80° C.
Human IAP is produced on a large scale to be used in the primary high throughput screening. For a maximum of 200,000 wells including a blank and negative control in each plate, approximately 1600 ml of the recombinant human IAP working solution (8 μl/well×200,000) is used. The working solution is a 1:80 dilution of the stock solution that has AP activity showing ΔOD405 (velocity) ˜300 in 5 min pNPP calorimetric assay. Therefore a minimum of 20 ml of the stock solution (1600÷80) is needed. An enzyme stock is prepared from ten 15 cm φ plates of COS-1 cells using 100 μg plasmid DNA [ten plates×(10 μg DNA/1×10^7 cells per 15 cm φ plate)].
Compound aliquots (4 μL at […] in 10% DMSO) are added to 8 μL of human IAP working solution of a the human IAP stock solution diluted 1:80 in assay buffer (250 mM DEA, pH 9.8, −2.5 mM MgCl2, −0.05 μM ZnCl2). The solution of substrate CDP-Star, disodium 2-chloro-5-(4-methoxyspiro{1,2-dioxetane-3,2′(5′-chloro)-tricyclo[3.3.1.1]3,7 decan}-4-yl)-1-phenyl phosphate (New England Biolabs), (8 μL of 125 μM in water) is added to each well. […] Dispensing of human IAP working solution and CDP-Star is processed using a WellMate bulk dispenser (Matrix). Plates (white 384-well small volume Greiner 784075) are incubated at room temperature for 30 min, and the luminescence signal is measured using a PerkinElmer EnVision multi-mode plate reader. L-Phenylalanine (1 mM final concentration) and 2% DMSO is utilized as an inhibition control and blank, respectively. Data analysis is processed using CBIS software (ChemInnovations, Inc).
The compound is diluted ([…] to 0.03 mM) and incubated with the human IAP enzyme for 30 min prior to addition of substrate. At the same time, human TNAP, human PLAP, human GCAP, mouse TNAP, mouse dIAP, mouse EAP and mouse gIAP is tested to determine enzyme specificity.

SMILES | n (Hill coefficient) | IC50
O=C1C2CCCCC2C(=O)N1c1nc(CCc2ccccc2)n[nH]1 (stereo not drawn) [Compound F3, 2-(3-phenethyl-1H-1,2,4-triazol-5-yl)-hexahydro-1H-isoindole-1,3(2H)-dione] | 0.694 | 1.75 µM
COc1ccc(-c2n[nH]c3oc(=O)cc(C)c23)cc1 [Compound E4, 3-(4-methoxyphenyl)-4-methylpyrano[2,3-c]pyrazol-6(1H)-one] | −1.49 | 23.7 µM
CCCCOc1ccc(-c2cc(C(=O)OC)[nH]n2)cc1 [Compound B15, methyl 3-(4-butoxyphenyl)-1H-pyrazole-5-carboxylate] | – | > 100 µM
CCOC(=O)c1cc(-c2ccc3c(c2)OCCO3)n[nH]1 [Compound B16, ethyl 3-(2,3-dihydrobenzo[b][1,4]dioxyin-6-yl)-1H-pyrazole-5-carboxylate] | – | > 100 µM
Cc1ccc(-c2cc(C(=O)O)[nH]n2)c(C)c1 [Compound B7, 3-(2,4-dimethylphenyl)-1H-pyrazole-5-carboxylic acid] | – | > 100 µM
O=C(O)c1cc(-c2ccccc2O)n[nH]1 [Compound B2, 3-(2-hydroxyphenyl)-1H-pyrazole-5-carboxylic acid] | −1.92 | 7.85 µM
CCOc1ccc(Cl)cc1S(=O)(=O)Nc1cccnc1 [Compound G3, 5-chloro-2-ethoxy-N-(pyridin-3-yl)benzenesulfonamide] | – | > 100 µM
Cc1cc(O)oc2nnc(-c3ccccc3)c1-2 [Compound E6, 4-methyl-3-phenylpyrano[2,3-c]pyrazol-6-ol] | −5 | 62.7 µM
CCOC(=O)c1[nH]nc2c1COc1ccccc1-2 [Compound E3, ethyl 2,4-dihydrochromeno[3,4-c]pyrazole-3-carboxylate] | – | > 100 µM
O=C1C2CC=CCC2C(=O)N1c1nc(Cc2ccccc2)n[nH]1 (stereo not drawn) [Compound F8, 2-(3-benzyl-1H-1,2,4-triazol-5-yl)-3a,4,7,7a-tetrahydro-1H-isoindole-1,3(2H)-dione] | 1.28 | 0.503 µM
COc1cccc(-c2cc(C(=O)O)[nH]n2)c1 [Compound B5, 3-(3-methoxyphenyl)-1H-pyrazole-5-carboxylic acid] | – | > 100 µM
O=c1cc(CCO)c2c(-c3ccccc3)n[nH]c2o1 [Compound E7, 4-(2-hydroxyethyl)-3-phenylpyrano[2,3-c]pyrazol-6(1H)-one] | – | > 100 µM
O=C1C2CCCCC2C(=O)N1c1nc(Cc2ccccc2)n[nH]1 (stereo not drawn) [Compound F2, 2-(3-benzyl-1H-1,2,4-triazol-5-yl)-hexahydro-1H-isoindole-1,3(2H)-dione] | 1.01 | 0.0613 µM
CC(C)(C)C(=O)COC(=O)c1cc(-c2ccc(Br)cc2)[nH]n1 [Compound A12, 3,3-dimethyl-2-oxobutyl 5-(4-bromophenyl)-1H-pyrazole-3-carboxylate] | −1.09 | 42.8 µM
COC(=O)c1cc(-c2ccc(Cl)cc2Cl)n[nH]1 [Compound B12, methyl 3-(2,4-dichlorophenyl)-1H-pyrazole-5-carboxylate] | −1.3 | 9.32 µM
O=C(O)c1[nH]nc2c1COc1ccccc1-2 [Compound E1, 2,4-dihydrochromeno[3,4-c]pyrazole-3-carboxylic acid] | 0.533 | 13.9 µM
O=C1C2CC=CCC2C(=O)N1c1ncn[nH]1 (stereo not drawn) [Compound F4, 2-(1H-1,2,4-triazol-5-yl)-3a,4,7,7a-tetrahydro-1H-isoindole-1,3(2H)-dione] | −1.61 | 34.5 µM
Cc1ccc(-c2cc(C(=O)O)[nH]n2)cc1 [Compound A4, 5-(4-methylphenyl)-1H-pyrazole-3-carboxylic acid] | – | > 100 µM
O=C(O)c1cc(-c2ccccc2Cl)[nH]n1 [Compound A1, 5-(2-chlorophenyl)-1H-pyrazole-3-carboxylic acid] | 0.9625 | –
COc1ccc(-c2cc(C(=O)O)n[nH]2)cc1 [Compound A3, 5-(4-methoxyphenyl)-1H-pyrazole-3-carboxylic acid] | – | > 100 µM
